Measured values from patent US7709490B2, “4,5-diphenyl-pyrimidinyl substituted carboxylic acids, method for the production and use thereof as medicaments” (Sanofi-Aventis, priority 2006, dated 2010).

Molecular target: T1, GPCR GPR40 (Homo sapiens, UniProt O14842)
T1 construct: expressed in transfected cells; host or cells: HEK293
Experiment: In vitro FLIPR assay with recombinant cells which express the GPCR GPR40
Format: cell-based
Conditions: 100 μM test substance; intracellular Ca2+ change in recombinant HEK293 cells expressing GPR40; relative to control (0%: no test substance; 100%: 10 μM linoleic acid)
Experimental: In Vitro FLIPR Assay with Recombinant Cells which Express the GPCR GPR40
Function-testing assays were carried out by means of the FLIPR technique (“Fluorescence Imaging Plate Reader”, Molecular Devices Corp.). For this purpose, agonist-induced changes in the intracellular concentration of Ca^2+ in recombinant HEK293 cells which expressed the GPCR GPR40 were determined.
For the investigations, cells were seeded in 96-well microtiter plates (60 000 cells/well) and allowed to grow overnight. The medium was removed and the cells were incubated in buffer which contained the fluorescent dye fluo-4. After this loading with dye, the cells were washed, test substance was added, and changes in the intracellular Ca^2+ concentration were measured in the FLIPR instrument. Results have been presented as percentage change relative to the control (0%: no test substance added; 100%: 10 μM reference agonist linoleic acid added).

T1 sequence (O14842 whole entry): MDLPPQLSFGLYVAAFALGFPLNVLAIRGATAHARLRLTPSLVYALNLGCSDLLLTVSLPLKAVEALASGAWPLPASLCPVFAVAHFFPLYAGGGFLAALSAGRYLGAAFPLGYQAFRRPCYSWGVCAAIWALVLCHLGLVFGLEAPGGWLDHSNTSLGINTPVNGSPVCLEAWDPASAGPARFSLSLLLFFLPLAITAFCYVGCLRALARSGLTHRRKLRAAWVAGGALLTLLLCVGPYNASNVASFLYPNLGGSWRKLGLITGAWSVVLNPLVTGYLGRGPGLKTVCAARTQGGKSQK

SMILES | % activation @ 100 μM
O=C(O)CCCC#Cc1ncc(-c2ccccc2)c(-c2ccccc2)n1 [Example 1] | 58%
O=C(O)CCCCC#Cc1ncc(-c2ccccc2)c(-c2ccccc2)n1 [Example 2, 7-(4,5-Diphenylpyrimidin-2-yl)-6-heptynoic Acid] | 104%
